Assay results as given in patent US11110195B2, “Esculentin 1a derivatives and uses thereof” (University of Houston System, priority 2013, dated 2021).
Converted amounts (≈) assume the structure as drawn. Residues, ends and D or L forms follow the SMILES beside them.

Tests used:
Pseudomonas aeruginosa = Pseudomonas aeruginosa ATCC 27853, reference strain; cited from earlier work
in vitro = conditions: for Peptide Amount (%): 24 h, 37° C.; for remaining at 5 h, 0.575 mM / remaining at 24 h, 0.575 mM: human
Method: A total of 125 μl of a 0.92 mM solution of each peptide was incubated at 37° C. with 20 μl and 60 μl human serum. Samples were collected after 5 h and 24 h of incubation, precipitated with 200 μl methanol, and centrifuged for 2 min at 10,000 g.
The crude solution was then analyzed by high-performance liquid chromatography (HPLC) and mass spectrometry. HPLC was performed with a Vydac C18 column, and the crude solution was diluted 5 times with 0.1% trifluoroacetic acid before injection and monitored at 280 nm.

HaCaT keratinocytes = system: HaCaT keratinocytes
Source text: Cell viability is expressed as percentage with respect to the control (cells not treated with the peptide). Data points represent the mean of triplicate samples ±SEM.

P. aeruginosa ATCC 27853 = test: Bactericidal activity in the presence of reflex human tears; format: cell-based, Pseudomonas aeruginosa; conditions: 10 μM or 20 μM peptide, 50% or 70% reflex tears
Method: FIG. 3A: Bacterial cells were incubated with 10 μM or 20 μM peptide in the presence of 50% reflex tears induced by onion vapors and pooled from three consenting adult volunteers with a normal ocular surface. FIG. 3B: Bacteria were incubated with 20 μM peptide in the presence of 70% reflex tears. In both cases, aliquots were withdrawn for cell counting at different time intervals. Mean data, expressed as the percentage of bacteria killed by the peptide are shown.
2×10^6 CFU/ml P. aeruginosa (ATCC 27853) were incubated with 10μM or 20μM Esc-1a(1-21)NH2 in the presence of 50% (FIG. 3A) or 70% (FIG. 3B) human reflex tears and aliquots withdrawn, plated and counted after 30, 90 and 120 minutes (n=3).

[1] = system: human telomerase immortalized corneal epithelial cells (hTCEpi); test: Wound healing (cell migration) assay, corneal epithelial cells; format: cell-based; conditions: hTCEpi monolayer
Method: The percentage of cell-covered area at each time point was determined and is reported on the y-axis. Control (Ctrl) represents cells not treated with the peptide. All data are the mean of at least three independent experiments ±SE.
To determine cell migration after treatment with Esc-1a(1-21)NH2, a wound healing assay was performed using human telomerase immortalized corneal epithelial cells (hTCEpi) (FIG. 9). Cells were cultured in Keratinocyte growth Medium-2 supplemented with growth factors and Normocin […] (KGM-2g). Cell migration was studied as follows: hTCEpi cells (70,000) suspended in KGM-2g were seeded on each side of ibidi culture inserts for live cell analysis (Ibidi, Munich, Germany). Inserts were placed into 35 mm dishes and incubated at 37° C. and 5% CO2 to allow cells grow to confluence. Afterwards, inserts were removed with sterile tweezers to create a cell-free area (“wound”) of approximately 500 μm; after a wash with 1 ml of PBS, 1 ml of Dulbecco's modified Eagle's medium (DMEM) supplemented with 4 mM L-glutamine, 5% fetal bovine serum (FBS) and the peptide at different concentrations was added. The dishes with inserts were placed in an appropriate incubator and the cells were allowed to migrate. […] The percentage of cell-covered area at each time was determined by WIMASIS Image Analysis program. […]

[2] = MTT viability assay, Raw 264.7 macrophages; conditions: mouse, Raw 264.7 macrophages
Method: (§1) Cell viability is expressed as percentage with respect to the control (cells not treated with the peptides). Data points represent the mean of triplicate samples ±SEM. […] The levels of statistical significance between the two peptides are indicated as follows: **p<0.01, ***p<0.001.
(§2) Cells were plated in wells of a microtiter plate, at 4×10^4 cells/well in DMEM supplemented with 2 mM glutamine and 2% FBS (for A549 cells) or DMEM containing 2 mM glutamine, non-essential amino acids (NEAA), sodium pyruvate and 2% FBS (for Raw 264.7 macrophages). After overnight incubation at 37° C. in a 5% CO2 atmosphere, the medium was replaced with 100 μl fresh serum-free medium supplemented with the peptides at different concentrations. After 24 h of peptide treatment, cell viability was determined by a MTT assay.

Raw 264.7 macrophages = test: MTT viability assay, Raw 264.7 macrophages; conditions: 128 μM, 24 h incubation
Method: as §1, §2

[3] = system: A549 lung epithelial cells; test: Wound healing assay, A549 lung epithelial cells; format: cell-based, human; conditions: A549 monolayer
Method: The percentage of cell-covered area at each time point is reported on the y-axis. Control (Ctrl) represents cells not treated with the peptides. All data are the mean of at least three independent experiments ±SEM. […] Both peptides were able to stimulate the closure of the gap produced in the monolayer of A549 cells, with the optimal concentration allowing the almost complete coverage of the wound field equal to 10 μM (for the wild type peptide, FIG. 13A) or 4 μM (for the diastereomer, FIG. 13B) within approximately 24 hours or 20 hours, respectively.
As shown in FIGS. 13A-13B, Esc-1a(1-21)NH2 and its diastereomer both stimulated wound closure although at concentrations much higher than were required to induce a similar effect in human corneal epithelial cells. This may reflect cell specific differences.

For CC[C@H](C)[C@H](NC(=O)CN)C(=O)N[C@@H](Cc1ccccc1)C(=O)N[C@@H](CO)C(=O)N[C@@H](CCCCN)C(=O)N[C@@H](CC(C)C)C(=O)N[C@@H](C)C(=O)NCC(=O)N[C@@H](CCCCN)C(=O)N[C@@H](CCCCN)C(=O)N[C@H](C(=O)N[C@@H](CCCCN)C(=O)N[C@@H](CC(N)=O)C(=O)N[C@@H](CC(C)C)C(=O)N[C@@H](CC(C)C)C(=O)N[C@H](C(=O)N[C@@H](CO)C(=O)NCC(=O)N[C@@H](CC(C)C)C(=O)N[C@@H](CCCCN)C(=O)NCC(N)=O)[C@@H](C)CC)[C@@H](C)CC [Esc-1a(1-21)NH2] (H-GIFSKLAGKKIKNLLISGLKG-NH2; N-terminus assumed), the MIC (Pseudomonas aeruginosa) is listed as 4 µM (≈ 8.74 µg/mL), the “Peptide Amount (%)” value (in vitro; 10% human fresh serum) is listed as “approximately 22.19%” and the “Peptide Amount (%)” value (in vitro; 30% human fresh serum) is listed as about 11.5%. The remaining at 5 h, 0.575 mM (in vitro; 10% human fresh serum) was 44.4%, the remaining at 24 h, 0.575 mM (in vitro; 10% human fresh serum) was 22.2% and the remaining at 5 h, 0.575 mM (in vitro; 30% human fresh serum) was 20.9%. For the same compound, the remaining at 24 h, 0.575 mM (in vitro; 30% human fresh serum) was 11.5%, the “reduction in the number of metabolically-active keratinocytes” value (HaCaT keratinocytes; 2 h treatment, 1-64 μM) was “did not show any remarkable reduction” and the “reduction in the percentage of metabolically-active cells” value (HaCaT keratinocytes; 24 h, 32 μM and 64 μM) was “approximately 20%”. For the same compound, the “retention of activity in reflex tears” value (P. aeruginosa ATCC 27853) was “activity was retained”, the “optimal concentration allowing complete coverage of the wound field” value [1] was 0.005 µM and the “time to maximum cell-covered area after peptide addition” value [1] was 9 to 12 h. For the same compound, the CC50 at 24 h [2] was 64 µM, the killing (Raw 264.7 macrophages) was 100% and the “optimal concentration allowing almost complete coverage of the wound field” value [3] was 10 µM. For the same compound, the “time to almost complete coverage of the wound field” value ([3]; at optimal concentration) was “approximately 24 hours”.
